Patent US4254126A, “4-Carbethoxy-carbonilamino-pyrimidines and a process for their preparation” (POLI Industria Chimica S.p.A., priority 1978, dated 1981)
Read-outs that look alike come from different tables or passages of the source.

Columns and labels:
Type in all cases: in vivo
gastric acid secretion = experiment: inhibition of gastric acid secretion in pylorus ligated rats (Shay rats); details: Rattus norvegicus, po, os, 50% inhibition of gastric acid secretion, read-out: Antisecretory and antiulcer activity ED50 Shay
From the text: (§1) The pharmacological study of the antiulcer activity of the compounds, in accordance with the present invention, has been carried out determining the dose which inhibits the gastric acid secretion by 50% (ED50) in pylorus ligated rats (Shay rats) according to the method described by Shay et al., in Gastroenterology 26, 906, 1954, the dose which reduces by 50% (ED50) the indomethacin-induced ulcers according to the procedure described by Leet et al., in Arch. Int. Pharmacodyn. 191, 370, 1971 and the dose which reduces by 50% (ED50) the ulcers by cold and restraint according to the procedure described by Senay and Levine in Proc. Soc. Exp. Biol. Med. 124, 1221, 1967.

[1] = system: indomethacin-induced ulcers; experiment: indomethacin-induced ulcers; details: Rattus norvegicus, po; os, 50% reduction of indomethacin-induced ulcers; read-out: Antisecretory and antiulcer activity ED50 Indometacin
From the text: as §1

[2] = system: Passive Cutaneous Anaphylaxis; experiment: Passive Cutaneous Anaphylaxis (PCA test) in the Rat; details: administered 5 minutes before the antigen
Experimental: The compounds of general formula (I) are all endowed with an extremely low toxicity (the DL50 per os in rats is higher than 1600 mg/kg for all the compounds) and they are rapidly absorbed through oral administration, so that the DE50 (the dosage capable of reducing the effects of the noxious stimulus by 50%) in the Passive Cutaneous Anaphylaxis Test in the rat is almost the same whether administered orally or intraperitoneally.
(a) Production of antiovalbumin reaginic serum. Male rats (COBS-CD) weighing 300 to 400 g, are immunized by intramuscular injection of 0.1 ml/kg of ovalbumin solution obtained by dissolving 20 mg of ovalbumin (Sigma) in 1 ml of saline and by intraperitoneal injection of 1 ml of pertussis vaccine (Abetin Sclavo). After eleven days the animals are killed, the blood collected and after one night at 4° C., centrifuged and sera stored at -20° C.
(b) PCA test--Male rats (COBS-CD) weighing 125 to 135 g were sensitized by two intradermal injections on the shaved back of 0.1 ml of anti-ovalbumin serum. After 24 hours, 25 mg/kg of ovalbumin and 25 mg/kg of Evans blue are injected intravenously and thirty minutes later the animals are killed, the skin of the back removed and the major and minor diameters of the two spots on the reflected skin are measured.

[3] = system: ulcers by cold and restraint; experiment: ulcers by cold and restraint; details: Rattus norvegicus, po; os, 50% reduction of ulcers by cold and restraint; read-out: Antisecretory and antiulcer activity ED50 Restraint
From the text: as §1

[4] = ip, intraperitoneal, read-out: PCA Test ED50 l.p.
[5] = po, os, read-out: PCA Test ED50 os

| SMILES | ED50 (gastric acid secretion) [mg/kg] | ED50 [1] [mg/kg] | ED50 [2, 4] [mg/kg] | ED50 [2, 5] [mg/kg] | ED50 [3] [mg/kg] |
| --- | --- | --- | --- | --- | --- |
| CCOC(=O)C(=O)Nc1cc(OC)ncn1 [Symbol 907] | 3.2 | 4.6 | 32 | 100 | 12 |
| CCOC(=O)C(=O)Nc1cc(OC)nc(C)n1 [Symbol 913] | 3.6 | 4.2 | < 5 | > 100 | 15 |
| CCOC(=O)C(=O)Nc1cc(OC)nc(-c2ccccc2)n1 [Symbol 921] | 6.2 | 15 | 30 | 100 | 25 |
| CCOC(=O)C(=O)Nc1cc(OCCOC)nc(C)n1 [Symbol 923] | 4.1 | 3.2 | 25 | 70 | 9 |
| CCOC(=O)C(=O)Nc1cc(OCCOCc2ccccc2)nc(C)n1 [Symbol 927] | 6.4 | 14.8 | 23 | 80 | 16 |
| CCOC(=O)C(=O)Nc1cc(SC)nc(C)n1 [Symbol 928] | 7.2 | 2 | 30 | > 100 | 14 |
| CCOC(=O)C(=O)Nc1cc(SCCOC(=O)C(=O)OCC)nc(C)n1 [Symbol 929] | 8.4 | 22.2 | 2.4 | 18 | 18 |
| CCOC(=O)C(=O)Nc1cc(Cl)ncn1 [Symbol 931] | 6.3 | 7.2 | 24 | > 100 | 22 |
| CCOC(=O)C(=O)Nc1cc(OCCOC)ncn1 [Symbol 932, 4-carbethoxycarbonilamino-6-(β-methoxyethoxy)-pyrimidine] | 2.1 | 3.2 | 10 | 26 | 7 |
| CCOC(=O)C(=O)Nc1ccncn1 [Symbol 933] | 3.8 | 4.7 | 32 | 96 | 10 |
| CCOC(=O)C(=O)Nc1cc(OC)nc(OC)n1 [Symbol 934] | 4.1 | 5.6 | 25 | > 100 | 11 |
| CCOC(=O)C(=O)Nc1cc(SCCOC(=O)C(=O)OCC)ncn1 [Symbol 940] | 5.2 | 3.6 | 12 | 43 | 8 |
| CCOC(=O)CCCSc1cc(NC(=O)C(=O)OCC)ncn1 [Symbol 953] | 7.2 | 8.8 | 3.2 | 26 | 12 |
| CCOC(=O)C(=O)Nc1cc(SCCOC)nc(C)n1 [Symbol 955] | 2.3 | 2.8 | 6.9 | 25 | 7 |
| CCOC(=O)C(=O)Nc1cc(SCCOC)ncn1 [Symbol 957] | 6.2 | 9.4 | 5.8 | 23 | 14 |
| CCOC(=O)C(=O)Nc1cc(OCCOCCOC)ncn1 [Symbol 963] | 6.1 | 7.3 | 6.2 | 24 | 16 |
| CCOC(=O)C(=O)Nc1cc(SCCOCCOC)ncn1 [Symbol 965] | 8.3 | 6.1 | 7.3 | 20 | 17 |
